Assay results taken from ChEMBL document CHEMBL4304796, “DPP1 Inhibitors: Exploring the Role of Water in the S2 Pocket of DPP1 with Substituted Pyrrolidines” (ACS Med Chem Lett, 2019).

These compounds were tested against T1, Dipeptidyl peptidase 1 (Homo sapiens, UniProt P53634) (assay: Inhibition of recombinant human DPPI using H-Gly-Arg-AFC as substrate preincubated for 30 mins followed by substrate addition measured after 60 mins by fluorescence plate reader analysis).
T1 sequence (P53634 25-134 limits assumed): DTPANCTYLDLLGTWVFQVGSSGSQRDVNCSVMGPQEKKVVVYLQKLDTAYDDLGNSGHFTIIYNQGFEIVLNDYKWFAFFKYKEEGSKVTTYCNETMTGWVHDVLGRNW
T1 sequence (P53634 231-394 limits assumed): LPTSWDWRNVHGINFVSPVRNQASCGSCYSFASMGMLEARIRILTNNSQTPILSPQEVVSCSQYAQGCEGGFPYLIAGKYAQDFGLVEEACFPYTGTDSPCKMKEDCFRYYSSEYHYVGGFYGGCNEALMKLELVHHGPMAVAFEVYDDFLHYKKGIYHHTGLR
T1 sequence (P53634 395-463 limits assumed): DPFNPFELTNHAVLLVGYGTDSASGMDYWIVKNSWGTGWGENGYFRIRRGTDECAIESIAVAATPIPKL

IC50 [nM]	SMILES
79.4	N#Cc1ccc(-c2ccc(C[C@@H](C#N)NC(=O)[C@@H]3CC(F)(F)CN3)cc2)cc1
631	N#Cc1ccc(-c2ccc(C[C@@H](C#N)NC(=O)[C@@H]3C[C@@H](F)CN3)cc2)cc1
6.31	N#Cc1ccc(-c2ccc(C[C@@H](C#N)NC(=O)[C@@H]3C[C@H](O)CN3)cc2)cc1
0.398	CS[C@@H]1CN[C@H](C(=O)N[C@H](C#N)Cc2ccc(-c3ccc(C#N)cc3)cc2)C1
50.1	N#Cc1ccc(-c2ccc(C[C@@H](C#N)NC(=O)[C@@H]3CCCN3)cc2)cc1
1.58	N#Cc1ccc(-c2ccc(C[C@@H](C#N)NC(=O)[C@@H]3C[C@H](F)CN3)cc2)cc1

The compounds below were run against T1, Dipeptidyl peptidase 1 (assay: Inhibition of recombinant human DPPI using H-Gly-Arg-AMC as substrate preincubated for 30 mins followed by substrate addition measured after 60 mins by fluorescence plate reader analysis).

IC50 [nM]	SMILES
158	N#C[C@H](Cc1ccc(-c2ccccc2)cc1)NC(=O)[C@@H]1C[C@@H](O)CN1
50.1	N#Cc1ccc(-c2ccc(C[C@@H](C#N)NC(=O)[C@@H]3C[C@@H](O)CN3)cc2)cc1
